The target of data set [1] is T1, Bone morphogenetic protein 1 (Homo sapiens, UniProt P13497).
T1 sequence (P13497 whole entry): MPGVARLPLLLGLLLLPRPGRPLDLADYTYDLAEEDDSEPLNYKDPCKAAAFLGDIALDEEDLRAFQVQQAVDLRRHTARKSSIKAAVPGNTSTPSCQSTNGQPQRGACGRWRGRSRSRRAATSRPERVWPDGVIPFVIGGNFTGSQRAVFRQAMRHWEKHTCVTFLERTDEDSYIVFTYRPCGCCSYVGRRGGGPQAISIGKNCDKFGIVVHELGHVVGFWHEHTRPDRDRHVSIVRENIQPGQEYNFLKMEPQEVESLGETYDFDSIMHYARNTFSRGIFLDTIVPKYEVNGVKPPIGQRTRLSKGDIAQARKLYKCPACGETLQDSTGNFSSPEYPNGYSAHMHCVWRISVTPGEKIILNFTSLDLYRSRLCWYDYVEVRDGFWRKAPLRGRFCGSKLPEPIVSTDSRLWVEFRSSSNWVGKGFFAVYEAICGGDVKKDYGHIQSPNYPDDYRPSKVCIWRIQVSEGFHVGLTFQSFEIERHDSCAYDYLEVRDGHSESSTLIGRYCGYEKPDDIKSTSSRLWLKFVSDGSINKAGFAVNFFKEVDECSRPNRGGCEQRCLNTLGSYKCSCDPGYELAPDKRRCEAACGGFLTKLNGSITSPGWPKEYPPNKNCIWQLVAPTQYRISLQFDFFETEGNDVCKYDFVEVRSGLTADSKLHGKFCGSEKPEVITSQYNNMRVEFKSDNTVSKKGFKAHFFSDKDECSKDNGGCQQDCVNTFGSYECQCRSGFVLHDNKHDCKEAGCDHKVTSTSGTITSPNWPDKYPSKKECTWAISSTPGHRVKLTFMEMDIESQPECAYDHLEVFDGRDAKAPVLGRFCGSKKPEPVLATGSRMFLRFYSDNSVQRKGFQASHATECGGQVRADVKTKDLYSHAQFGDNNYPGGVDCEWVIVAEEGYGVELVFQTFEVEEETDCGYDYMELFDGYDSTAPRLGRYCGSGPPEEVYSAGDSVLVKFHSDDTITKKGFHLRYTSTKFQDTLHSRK
As to the kind of experiment: Inhibition of C-terminal FLAG-6x-His epitope tagged and N-terminal human RAGE signal sequence tagged human BMP1 (121 to 721 amino acids) expressed in CHO-E1a cells pre-incubated for 10 mins before promyostatin peptide substrate addition and measured after 60 mins using 0.5 nM BMP1 by FRET based assay. It is filed as cell-based.

The target of a further data set is Tolloid-like protein 1 (Homo sapiens, UniProt O43897, I156V/N221S/V284A). As to the kind of experiment: Inhibition of recombinant human TLL1 I156V/N221S/V284A mutant expressed in CHOE1A cells pre-incubated for 10 mins before promyostatin peptide substrate addition and measured after 60 mins by FRET based assay. The format is cell-based.
Chain of Tolloid-like protein 1 (O43897 148-1013 I156V/N221S/V284A limits assumed): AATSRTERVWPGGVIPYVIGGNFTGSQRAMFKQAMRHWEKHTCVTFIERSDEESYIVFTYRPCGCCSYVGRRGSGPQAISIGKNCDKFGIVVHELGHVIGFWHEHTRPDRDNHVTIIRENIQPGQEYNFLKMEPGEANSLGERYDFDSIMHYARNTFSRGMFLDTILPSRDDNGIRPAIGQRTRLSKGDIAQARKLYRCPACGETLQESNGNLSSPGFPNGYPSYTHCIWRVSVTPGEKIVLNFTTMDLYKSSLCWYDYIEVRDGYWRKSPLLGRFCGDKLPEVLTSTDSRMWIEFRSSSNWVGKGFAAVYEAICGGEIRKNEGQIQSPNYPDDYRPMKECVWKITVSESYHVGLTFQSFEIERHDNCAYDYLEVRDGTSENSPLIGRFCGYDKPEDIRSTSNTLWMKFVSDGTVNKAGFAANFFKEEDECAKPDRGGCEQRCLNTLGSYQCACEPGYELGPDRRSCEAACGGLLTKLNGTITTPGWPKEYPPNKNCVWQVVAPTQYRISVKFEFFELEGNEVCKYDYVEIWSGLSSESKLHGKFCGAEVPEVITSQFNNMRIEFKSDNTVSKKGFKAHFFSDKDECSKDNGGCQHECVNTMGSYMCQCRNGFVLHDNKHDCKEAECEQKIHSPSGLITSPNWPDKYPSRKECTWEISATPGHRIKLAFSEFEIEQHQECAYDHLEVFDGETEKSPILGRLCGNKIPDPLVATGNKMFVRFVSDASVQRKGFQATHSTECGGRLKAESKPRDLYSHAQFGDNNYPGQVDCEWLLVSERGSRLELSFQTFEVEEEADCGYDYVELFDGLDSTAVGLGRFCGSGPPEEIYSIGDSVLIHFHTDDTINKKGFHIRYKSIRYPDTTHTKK
Data set [2] in a line: Reduction in PICP levels in human cardiac fibroblasts incubated for 24 to 48 hrs by ELISA. The format is functional. A general note: In an ELISA, binding on a coated surface is turned into a signal by an enzyme label.
Another data set has as its target T2, Tolloid-like protein 2 (Homo sapiens, UniProt Q9Y6L7).
T2 sequence (Q9Y6L7 whole entry): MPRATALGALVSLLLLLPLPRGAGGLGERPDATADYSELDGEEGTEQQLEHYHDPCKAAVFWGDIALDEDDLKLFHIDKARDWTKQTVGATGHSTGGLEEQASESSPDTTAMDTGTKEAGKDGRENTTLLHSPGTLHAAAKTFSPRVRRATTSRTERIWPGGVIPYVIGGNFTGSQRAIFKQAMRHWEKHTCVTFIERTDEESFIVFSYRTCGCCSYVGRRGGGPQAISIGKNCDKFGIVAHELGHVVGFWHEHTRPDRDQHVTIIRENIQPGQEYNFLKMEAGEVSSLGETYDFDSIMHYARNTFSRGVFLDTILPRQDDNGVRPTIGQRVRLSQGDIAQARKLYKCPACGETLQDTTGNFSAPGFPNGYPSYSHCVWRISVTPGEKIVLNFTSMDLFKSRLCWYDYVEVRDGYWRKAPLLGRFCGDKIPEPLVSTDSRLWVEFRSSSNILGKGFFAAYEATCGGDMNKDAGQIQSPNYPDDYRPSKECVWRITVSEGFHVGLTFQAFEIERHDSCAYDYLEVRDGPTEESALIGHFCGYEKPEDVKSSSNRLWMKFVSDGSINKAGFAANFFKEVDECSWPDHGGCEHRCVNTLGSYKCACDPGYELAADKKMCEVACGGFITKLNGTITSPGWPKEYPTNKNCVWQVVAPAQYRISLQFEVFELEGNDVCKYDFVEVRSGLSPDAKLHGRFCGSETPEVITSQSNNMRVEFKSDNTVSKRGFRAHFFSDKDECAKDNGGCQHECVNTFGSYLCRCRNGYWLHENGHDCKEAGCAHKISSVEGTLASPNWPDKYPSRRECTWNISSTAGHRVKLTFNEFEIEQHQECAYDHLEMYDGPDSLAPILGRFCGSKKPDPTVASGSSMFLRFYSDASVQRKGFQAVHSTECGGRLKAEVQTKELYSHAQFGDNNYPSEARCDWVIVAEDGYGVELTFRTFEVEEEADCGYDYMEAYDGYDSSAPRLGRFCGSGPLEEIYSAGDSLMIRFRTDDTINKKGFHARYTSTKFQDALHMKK
Kind of data set: Inhibition of C-terminal Avi-6x-His epitope tagged and N-terminal human RAGE signal sequence tagged recombinant human TLL2 (26 to 1015 amino acids) expressed in CHOE1A cells incubated for 60 mins with promyostatin peptide substrate by FRET based assay. It is filed as cell-based.

The nature of data set [3]: Drug metabolism in heparinized pooled human plasma at pH 7.5 assessed as formation of N-(((R)-2-((R)-1-(N-hydroxyformamido)propyl)heptanamido)methyl)-5-phenylfuran-2-carboxamide at 100 to 2000 ng/ml incubated up to 4 or 24 hrs by LC-MS/MS analysis. The format is ADME, cell-free. Conditions: pH 7.5, 24 h.
Data set [4] in a line: Reduction in mature collagen deposition levels in human cardiac fibroblasts incubated for 24 to 48 hrs by immunostaining based assay. It is filed as functional.
The nature of data set [5]: Drug metabolism in heparinized pooled human plasma at pH 7.5 assessed as conversion to active compound at 100 to 2000 ng/ml incubated for 4 by LC-MS/MS analysis. It is filed as ADME, cell-free.
Data set [6] can be described thus: Stability in pH 7.96 assessed as compound purity level at 1 mg/ml heated to 40 degC and measured at 200 hrs by LC/MS analsysis. Conditions: buffer, read-out: Stability. It is filed as physicochemical.
Data set [7] is described as follows: Drug metabolism in heparinized pooled human plasma at pH 7.5 assessed as formation of 4-(5-((((R)-2-((R)-1-(N-hydroxyformamido) propyl)heptanamido)methyl)carbamoyl)furan-2-yl)benzoic acid at 100 to 2000 ng/ml incubated up to 4 or 24 hrs by LC-MS/MS analysis. It is filed as ADME, cell-free. The note with it: pH 7.5, 24 h.
A short description of data set [8]: Drug metabolism in heparinized pooled human plasma at pH 7.5 assessed as formation of (3-ethoxy-5-(5-((((R)-2-((R)-1-(N-hydroxyformamido)propyl)heptanamido)methyl)carbamoyl) furan-2-yl)phenyl)phosphonic acid at 100 to 2000 ng/ml incubated up to 4 or 24 hrs by LC-MS/MS analysis. Conditions: pH 7.5, 24 h. The format is ADME, cell-free.

For the compound `CCCCC[C@@H](C(=O)NCNC(=O)c1ccc(-c2cc(OCC)cc(P(=O)(O)OCOC(=O)OC(C)C)c2)o1)[C@@H](CC)N(O)C=O`, the IC50 (commonly the concentration that inhibits the measured activity by half) is less than 316 nM in data set [1], less than 251 nM at Tolloid-like protein 1, less than 398 nM in [2] and less than 398 nM on Tolloid-like protein 2.

In the case of `CCCCC[C@@H](C(=O)NCNC(=O)c1ccc(-c2ccc(C(=O)N[C@@H](CC(=O)O)C(=O)OC(C)(C)C)c(OCC)c2)o1)[C@@H](CC)N(O)C=O`, the IC50 in data set [1] was 126 to 316 nM; at Tolloid-like protein 1, 251 to 398 nM; in data set [2] it was 398 to 3980 nM; at Tolloid-like protein 2, 398 to 794 nM.

As for `CCCCC[C@@H](C(=O)NCNC(=O)c1ccc(-c2ccccc2)o1)[C@@H](CC)N(C=O)OCOP(=O)(O)O.N.N`, in [3], the Drug metabolism entry is reported as “Metabolite_Detected”.

As to `CCCCC[C@@H](C(=O)NCNC(=O)c1ccc(-c2ccc(C(=O)N[C@@H](CC(=O)O)C(=O)OCC)c(OCC)c2)o1)[C@@H](CC)N(O)C=O`, the IC50 in [1] is 126 to 316 nM; on Tolloid-like protein 1, 251 to 398 nM; in data set [2], 398 to 3980 nM; in [4], less than 1000 nM; at Tolloid-like protein 2, 398 to 794 nM.

On to `CCCCC[C@@H](C(=O)NCNC(=O)c1ccc(-c2ccccc2)o1)[C@@H](CC)N(C=O)OC(=O)C(C)(C)C`, for which the Drug metabolism is listed as more than 10% in data set [5] and “Metabolite_Detected” in [3]. The compound further had an IC50 in data set [2] of less than 3980 nM. In [6], the remaining at 200 h, 1 mg/ml was less than 80%.

For the compound `CCCCC[C@@H](C(=O)NCNC(=O)c1ccc(-c2ccc(C(=O)OCC(=O)N(C)C)cc2)o1)[C@@H](CC)N(O)C=O`, the Drug metabolism result in [7] was “Metabolite_Detected”. The half-inhibitory concentration (IC50) in data set [2] was less than 3980 nM.

Consider `CCCCC[C@@H](C(=O)NCNC(=O)c1ccc(-c2ccc(C(=O)N[C@@H](CC(=O)OCC)C(=O)OCC)c(OCC)c2)o1)[C@@H](CC)N(O)C=O`, for which the IC50 in [1] is 126 to 316 nM; on Tolloid-like protein 1, 251 to 398 nM; in data set [2] it was 398 to 3980 nM; at Tolloid-like protein 2, 398 to 794 nM.

Consider `CCCCC[C@@H](C(=O)NCNC(=O)c1ccc(-c2ccccc2)o1)[C@@H](CC)N(C=O)OC(=O)c1ccccc1`, for which the results for the Drug metabolism in [5] and in data set [3] were more than 10% and “Metabolite_Detected”, respectively. The compound also had an IC50 in data set [2] of less than 3980 nM. Besides, the remaining at 200 h, 1 mg/ml in [6] was less than 80%.

For `CCCCC[C@@H](C(=O)NCNC(=O)c1ccc(-c2ccc(C(=O)OCCc3ccccc3)cc2)o1)[C@@H](CC)N(O)C=O`, in [7], the Drug metabolism result was “Metabolite_Detected”. This compound also had an IC50 in data set [2] of less than 3980 nM.

Regarding `CCCCC[C@@H](C(=O)NCNC(=O)c1ccc(-c2ccc(C(=O)OCCN3CCOCC3)cc2)o1)[C@@H](CC)N(O)C=O`, in [7], the Drug metabolism entry is reported as “Metabolite_Detected”. This compound had an IC50 in data set [2] of less than 3980 nM.

As to `CCCCC[C@@H](C(=O)NCNC(=O)c1ccc(-c2cc(OCC)cc(P(=O)(O)Oc3ccccc3)c2)o1)[C@@H](CC)N(O)C=O`, the IC50 in data set [1] is less than 316 nM; on Tolloid-like protein 1 it was less than 251 nM; in data set [2] it was less than 398 nM; on Tolloid-like protein 2 it was less than 398 nM.

On to `CCCCC[C@@H](C(=O)NCNC(=O)c1ccc(-c2ccc(C(=O)N[C@@H](CC(=O)OC(C)(C)C)C(=O)OC(C)(C)C)c(OCC)c2)o1)[C@@H](CC)N(O)C=O`, for which the IC50 in data set [1] is 126 to 316 nM; at Tolloid-like protein 1 it was 251 to 398 nM; in data set [2], 398 to 3980 nM; in [4], less than 1000 nM; on Tolloid-like protein 2 it was 398 to 794 nM.

`CCCCC[C@@H](C(=O)NCNC(=O)c1ccc(-c2ccc(C(=O)N[C@@H](CC(=O)O)C(=O)OCOC(=O)c3ccccc3)c(OCC)c2)o1)[C@@H](CC)N(O)C=O`: the IC50 in data set [1] is less than 316 nM; at Tolloid-like protein 1, less than 251 nM; in data set [2], less than 398 nM; on Tolloid-like protein 2, less than 398 nM.

With `CCCCC[C@@H](C(=O)NCNC(=O)c1ccc(-c2ccccc2)o1)[C@@H](CC)N(C=O)OC(=O)OC`, the Drug metabolism in data set [5] was more than 10%; in [3], “Metabolite_Detected”. Moreover, the IC50 in [2] was less than 3980 nM. The remaining at 200 h, 1 mg/ml in data set [6] was less than 80%.

Turning to `CCCCC[C@@H](C(=O)NCNC(=O)c1ccc(-c2ccc(C(=O)O)cc2)o1)[C@@H](CC)N(C=O)OC(=O)c1ccccc1`, in data set [7], the Drug metabolism result is reported as “Metabolite_Detected”.

In the case of `CCCCC[C@@H](C(=O)NCNC(=O)c1ccc(-c2ccc(C(=O)N[C@@H](CC(=O)OC)C(=O)OC)c(OCC(=O)OC)c2)o1)[C@@H](CC)N(O)C=O`, the IC50 in data set [1] was 126 to 316 nM; at Tolloid-like protein 1, 251 to 398 nM; in data set [2], 398 to 3980 nM; at Tolloid-like protein 2, 398 to 794 nM. Also, the remaining at 200 h, 1 mg/ml in data set [6] was less than 80%.

In the case of `CCCCC[C@@H](C(=O)NCNC(=O)c1ccc(-c2ccccc2)o1)[C@@H](CC)N(C=O)OC(=O)Cc1ccccc1`, the Drug metabolism in [5] was more than 10%; in [3], “Metabolite_Detected”. In addition, the IC50 in data set [2] was less than 3980 nM. In data set [6], the remaining at 200 h, 1 mg/ml is less than 80%.

As for `CCCCC[C@@H](C(=O)NCNC(=O)c1ccc(-c2ccccc2)o1)[C@@H](CC)N(C=O)OC(=O)OC(C)(C)C`, the Drug metabolism was more than 10% in [5] and “Metabolite_Detected” in data set [3]. Besides, the IC50 was less than 3980 nM in data set [2] and less than 1000 nM in data set [4]. Moreover, the remaining at 200 h, 1 mg/ml in data set [6] was less than 80%.

Turning to `CCCCC[C@@H](C(=O)NCNC(=O)c1ccc(-c2cc(OCC)cc(P(=O)(OCOC(C)=O)OCOC(C)=O)c2)o1)[C@@H](CC)N(O)C=O`, the Drug metabolism entry in data set [8] was “Metabolite_Detected”. In addition, the IC50 in data set [1] is 126 to 316 nM; on Tolloid-like protein 1, 251 to 398 nM; in [2], 398 to 3980 nM; on Tolloid-like protein 2 it was 398 to 794 nM.

(Values after ChEMBL document CHEMBL4418493, “N-hydroxyformamide compounds and compositions comprising them for use as BMP1, TLL1 and/or TLL2 inhibitors” (2018).)
